Measurements as given in patent US7897602B2, “Indolinone compounds as kinase inhibitors” (Development Center for Biotechnology, priority 2009, dated 2011).

How the values were obtained:
Type in all cases: biochemical
Aurora B kinase = target: T1, Aurora B kinase (Homo sapiens, UniProt Q96GD4); assay: Aurora B kinase assay ([γ-33P]ATP, CHOCKtide substrate); conditions: for inhibition at 1 µM: 1.0 μM test compound
T1 construct: purchased Cell signaling
Outline: (§1)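 Radiometric filter-binding format: 33P incorporation into CHOCKtide counted after acid stop and filtration. Reactions ran 30 min at 33 °C, Aurora A with 10 μM ATP, Aurora B with 40 μM ATP. IC50 taken as concentration giving half-maximal kinase inhibition.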

c-Met kinase = target: T2, c-Met kinase (Homo sapiens, UniProt P08581); assay: c-Met kinase assay (33P incorporation into Poly(Glu-Tyr)); conditions: 500 nM test compound
T2 construct: recombinant N-terminal 6×His-tagged c-Met kinase domain construct expressed from baculovirus; 6xHis (N); made in house
Outline: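 Single-concentration test (500 nM compound) at 30° C for 30 min, pH 7.0 MOPS buffer with 100 μM ATP and [33P]-γ-ATP. Enzyme was baculovirus-expressed 6×His c-Met kinase domain (5 ng), substrate Poly(Glu-Tyr) 4:1. Inhibition percentage derived from filter-bound counts relative to DMSO control.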

Aurora A kinase = target: T3, Aurora A kinase (Homo sapiens, UniProt O14965); assay: Aurora A kinase assay ([γ-33P]ATP, CHOCKtide substrate); conditions: for inhibition at 1 µM: 1.0 μM test compound
T3 construct: purchased Upstate
T3 sequence (O14965 1-403): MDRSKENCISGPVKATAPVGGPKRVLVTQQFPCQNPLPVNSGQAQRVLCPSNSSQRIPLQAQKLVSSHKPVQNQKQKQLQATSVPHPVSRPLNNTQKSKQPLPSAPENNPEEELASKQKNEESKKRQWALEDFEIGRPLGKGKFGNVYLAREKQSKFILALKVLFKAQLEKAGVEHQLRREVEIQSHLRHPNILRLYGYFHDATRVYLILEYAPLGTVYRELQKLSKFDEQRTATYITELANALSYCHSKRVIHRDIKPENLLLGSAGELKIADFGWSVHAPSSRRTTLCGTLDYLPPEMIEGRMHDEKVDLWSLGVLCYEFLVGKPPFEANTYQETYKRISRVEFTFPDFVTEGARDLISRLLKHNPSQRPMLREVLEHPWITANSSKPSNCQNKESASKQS
Outline: as §1

T2 sequence (P08581 1078-1345 limits assumed): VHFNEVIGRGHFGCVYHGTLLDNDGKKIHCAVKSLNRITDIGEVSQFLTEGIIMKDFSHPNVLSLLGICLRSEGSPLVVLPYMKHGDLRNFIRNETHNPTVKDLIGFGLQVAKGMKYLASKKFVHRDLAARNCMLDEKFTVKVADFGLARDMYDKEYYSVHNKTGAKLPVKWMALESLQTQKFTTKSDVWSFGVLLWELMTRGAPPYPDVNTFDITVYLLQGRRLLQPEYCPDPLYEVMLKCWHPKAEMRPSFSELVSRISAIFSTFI
T1 sequence (Q96GD4 whole entry): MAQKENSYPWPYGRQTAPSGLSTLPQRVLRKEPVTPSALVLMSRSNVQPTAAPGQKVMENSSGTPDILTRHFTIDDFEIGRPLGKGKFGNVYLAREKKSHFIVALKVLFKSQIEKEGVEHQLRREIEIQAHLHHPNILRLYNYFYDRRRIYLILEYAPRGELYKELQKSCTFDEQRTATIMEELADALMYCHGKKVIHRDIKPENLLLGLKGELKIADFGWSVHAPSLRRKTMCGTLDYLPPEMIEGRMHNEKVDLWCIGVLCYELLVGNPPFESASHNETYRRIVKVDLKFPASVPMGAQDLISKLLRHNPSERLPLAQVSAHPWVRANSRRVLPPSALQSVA

Row | Structure (SMILES) | inhibition at 1 µM (Aurora B kinase) | inhibition at 0.5 µM (c-Met kinase) | inhibition at 1 µM (Aurora A kinase) | IC50 (Aurora B kinase) | IC50 (Aurora A kinase)
1 | O=C(O)CCc1c(/C=C2\C(=O)Nc3ccc(NC(=O)c4ccccc4)cc32)[nH]c2c1C(=O)CCC2 [DCB-70097, (Z)-5-benazmido-3-((3-carboxyethyl-4-oxo-4,5,6,7-tetrahydro-1H-indol-2-yl)methylene)indolin-2-one] | 14.2% | 14.4% | 64.7% |  | 
2 | CCOC(=O)CCc1c(/C=C2\C(=O)Nc3ccc(-c4ccc(O)c(OC)c4)cc32)[nH]c2c1C(=O)CCC2 [DCB-70058, (Z)-5-(4-hydroxyl-3-methoxyphenyl)-3-((3-(3-ethoxy-3-oxopropyl)-4-oxo-4,5,6,7-tetrahydro-1H-indol-2-yl)methylene)indolin-2-one] | -1% | 9.7% | 17.7% |  | 
3 | O=C(O)CCc1c(/C=C2\C(=O)Nc3ccc(S(=O)(=O)N4CCCCC4)cc32)[nH]c2c1C(=O)CCC2 [DCB-70114, (Z)-5-(piperidin-1-ylsulfonyl)-3-((3-carboxyethyl-4-oxo-4,5,6,7-tetrahydro-1H-indol-2-yl)methylene)indolin-2-one] | 60.7% | 3.5% | 99.9% | 494 nM | 14 nM
4 | COc1ccc(-c2ccc3c(c2)/C(=C/c2[nH]c4c(c2CCC(=O)O)C(=O)CCC4)C(=O)N3)cc1OC [DCB-70068, (Z)-5-(3,4-dimethoxyphenyl)-3-((3-carboxyethyl-4-oxo-4,5,6,7-tetrahydro-1H-indol-2-yl)methylene)indolin-2-one] | 5.1% | 18% | 54% |  | 560 nM
5 | O=C(O)CCc1c(/C=C2\C(=O)Nc3ccc(S(=O)(=O)N4CCCC4)cc32)[nH]c2c1C(=O)CCC2 [DCB-70087, (Z)-5-(pyrrolidin-1-ylsulfonyl)-3-((3-carboxyethyl-4-oxo-4,5,6,7-tetrahydro-1H-indol-2-yl)methylene)indolin-2-one] | 66.2% | 20.9% | 99.7% | 441 nM | 7.3 nM
6 | CCOC(=O)CCc1c(/C=C2\C(=O)Nc3ccc(NC(=O)Nc4ccc(F)cc4)cc32)[nH]c2c1C(=O)CCC2 [DCB-70136, (Z)-ethyl 3-(2-((5-(3-(4-fluorophenyl)ureido)-2-oxoindolin-3-ylidene)methyl)-4-oxo-4,5,6,7-tetrahydro-1H-indol-3-yl)propanoate] | 0.1% | -7.7% | 26.4% |  | 
7 | CCOC(=O)CCc1c(/C=C2\C(=O)Nc3ccc(NC(=O)Nc4ccc(Cl)c(C(F)(F)F)c4)cc32)[nH]c2c1C(=O)CCC2 [DCB-70137, (Z)-ethyl 3-(2-((5-(3-(4-chloro-3-(trifluoromethyl)phenyl)ureido)-2-oxoindolin-3-ylidene)methyl)-4-oxo-4,5,6,7-tetrahydro-1H-indol-3-yl)propanoate] | -3.3% | 11.5% | 12.6% |  | 
8 | CN1CCN(C(=O)CCc2c(/C=C3\C(=O)Nc4ccc(S(=O)(=O)N5CCCC5)cc43)[nH]c3c2C(=O)CCC3)CC1 [DCB-70120, (Z)-3-((3-(3-(4-methylpiperazin-l-yl)-3-oxopropyl)-4-oxo-4,5,6,7-tetrahydro-1H-indol-2-yl)methylene)-5-(pyrrolidin-1-ylsulfonyl)indolin-2-one] | 21.5% | 10% | 50.5% |  | 
9 | O=C(O)CCc1c(/C=C2\C(=O)Nc3ccc(S(=O)(=O)Cc4ccc(F)cc4)cc32)[nH]c2c1C(=O)CCC2 [DCB-70072, (Z)-5-(4-fluorobenzylsulfonyl)-3-((3-carboxyethyl-4-oxo-4,5,6,7-tetrahydro-1H-indol-2-yl)methylene)indolin-2-one] | 15.5% | 62.8% | 71.1% |  | 443 nM
10 | O=C(O)CCc1c(/C=C2\C(=O)Nc3ccc(Br)cc32)[nH]c2c1C(=O)CCC2 [DCB-70057, (Z)-5-bromo-3-((3-carboxyethyl-4-oxo-4,5,6,7-tetrahydro-1H-indol-2-yl)methylene)indolin-2-one] | 6.8% | 19.3% | 89.5% |  | 211 nM
11 | CCOC(=O)CCc1c(/C=C2\C(=O)Nc3cc(-c4ccc(O)c(OC)c4)ccc32)[nH]c2c1C(=O)CCC2 [DCB-70081, (Z)-6-(4-hydroxy-3-methoxyphenyl)-3-((3-(3-ethoxy-3-oxopropyl)-4-oxo-4,5,6,7-tetrahydro-1H-indol-2-yl)methylene)indolin-2-one] | 30.6% | 25.6% | 27.7% |  | 
12 | CCOC(=O)CCc1c(/C=C2\C(=O)Nc3ccc(NS(=O)(=O)c4ccc(F)cc4)cc32)[nH]c2c1C(=O)CCC2 [DCB-70144, (Z)-ethyl 3-(2-((5-(4-fluorophenylsulfonamido)-2-oxoindolin-3-ylidene)methyl)-4-oxo-4,5,6,7-tetrahydro-1H-indol-3-yl)propanoate] | 61.9% | 14.4% | 82% | 448 nM | 270 nM
13 | CCOC(=O)CCc1c(/C=C2\C(=O)Nc3ccc(NS(=O)(=O)c4ccccc4)cc32)[nH]c2c1C(=O)CCC2 [DCB-70102, (Z)-5-phenylsulfonamido-3-((3-(3-ethoxy-3-oxopropyl)-4-oxo-4,5,6,7-tetrahydro-1H-indol-2-yl)methylene)indolin-2-one] | 74.3% | 33.7% | 88.8% | 214 nM | 83.5 nM
14 | CCOC(=O)CCc1c(/C=C2\C(=O)Nc3ccccc32)[nH]c2c1C(=O)CCC2 [DCB-70049, (Z)-3-((3-(3-ethoxy-3-oxopropyl)-4-oxo-4,5,6,7-tetrahydro-1H-indol-2-yl)methylene)indolin-2-one] | 2.3% | 26% | 32.6% | 5920 nM | 1780 nM
15 | CCOC(=O)CCc1c(/C=C2\C(=O)Nc3ccc(-c4ccc(F)cc4)cc32)[nH]c2c1C(=O)CCC2 [DCB-70108, (Z)-5-(4-fluorophenyl)-3-((3-(3-ethoxy-3-oxopropyl)-4-oxo-4,5,6,7-tetrahydro-1H-indol-2-yl)methylene)indolin-2-one] | 6.8% | 30.1% | 7.5% |  | 
16 | O=C1Nc2ccc(F)cc2/C1=C/c1[nH]c2c(c1CCC(=O)N1CCOCC1)C(=O)CCC2 [DCB-70125, (Z)-5-fluoro-3-((3-(3-morpholino-3-oxopropyl)-4-oxo-4,5,6,7-tetrahydro-1H-indol-2-yl)methylene)indolin-2-one] | -0.1% | 2.9% | 39.7% |  | 
17 | O=C(O)CCc1c(/C=C2\C(=O)Nc3ccc([N+](=O)[O-])cc32)[nH]c2c1C(=O)CCC2 [DCB-70063, (Z)-5-nitro-3-((3-carboxyethyl-4-oxo-4,5,6,7-tetrahydro-1H-indol-2-yl)methylene)indolin-2-one] | 3.4% | 19.9% | 56.6% |  | 724 nM
18 | O=C(O)CCc1c(/C=C2\C(=O)Nc3ccc(NCc4ccccc4)cc32)[nH]c2c1C(=O)CCC2 [DCB-70132, (Z)-3-(2-((5-(benzylamino)-2-oxoindolin-3-ylidene)methyl)-4-oxo-4,5,6,7-tetrahydro-1H-indol-3-yl)propanoic acid] | 26.9% | 13.7% | 33.4% |  | 
19 | CCOC(=O)CCc1c(/C=C2\C(=O)Nc3ccc(Br)cc32)[nH]c2c1C(=O)CCC2 [DCB-70056, (Z)-5-bromo-3-((3-(3-ethoxy-3-oxopropyl)-4-oxo-4,5,6,7-tetrahydro-1H-indol-2-yl)methylene)indolin-2-one] | 7.2% | 30.9% | 55% |  | 
20 | CN(C)S(=O)(=O)c1ccc2c(c1)/C(=C/c1[nH]c3c(c1CCC(=O)O)C(=O)CCC3)C(=O)N2 [DCB-70121, (Z)-5-(N,N-dimethylsulfamoyl)-3-((3-carboxyethyl-4-oxo-4,5,6,7-tetrahydro-1H-indol-2-yl)methylene)indolin-2-one] | 46.5% | -6.7% | 97.9% | 1720 nM | 
21 | O=C(O)CCc1c(/C=C2\C(=O)Nc3cc(F)ccc32)[nH]c2c1C(=O)CCC2 [DCB-70123, (Z)-6-fluoro-3-((3-carboxyethyl-4-oxo-4,5,6,7-tetrahydro-1H-indol-2-yl)methylene)indolin-2-one] | 13.3% | 8.3% | 78.1% |  | 
22 | CCOC(=O)CCc1c(/C=C2\C(=O)Nc3ccc(NCc4ccccc4)cc32)[nH]c2c1C(=O)CCC2 [DCB-70131, (Z)-ethyl 3-(2-((5-(benzylamino)-2-oxoindolin-3-ylidene)methyl)-4-oxo-4,5,6,7-tetrahydro-1H-indol-3-yl)propanoate] | 44.5% | -2.1% | 70.7% |  | 
